Assay results taken from patent publication US8785211B2 (priority 2005, dated 2014).

Biological target: wild type α-HL single channel (Staphylococcus aureus, UniProt P09616)
Assay type: binding

Sequence of wild type α-HL single channel (P09616 27-319 limits assumed): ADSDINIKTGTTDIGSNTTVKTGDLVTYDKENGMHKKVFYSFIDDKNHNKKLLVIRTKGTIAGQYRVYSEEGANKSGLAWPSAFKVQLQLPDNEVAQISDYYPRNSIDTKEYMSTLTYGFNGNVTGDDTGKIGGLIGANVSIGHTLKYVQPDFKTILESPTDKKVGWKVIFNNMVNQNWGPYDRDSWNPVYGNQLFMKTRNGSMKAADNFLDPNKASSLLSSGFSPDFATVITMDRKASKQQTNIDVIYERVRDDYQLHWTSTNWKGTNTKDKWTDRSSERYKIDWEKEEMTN

Which “Cyclodextrin binding to wild type pore” value does the source give for “heptakis-6-amino-β-cyclodextrin [am7-βCD]” here?
Its value is “led to cyclodextrin binding events”.
